Data on 32 compounds can be found in patent US10689354B2, “Aminoazole derivative” (Teijin Pharma Limited, priority 2015, dated 2020).

This assay addresses T1, androgen receptor (AR-LBD) (Rattus norvegicus, UniProt P15207).
T1 construct: 5 μL of 2×AR-LBD/Fluoromone AL Red Complex contained in the kit; purchased Invitrogen
T1 sequence (P15207 651-882 limits assumed): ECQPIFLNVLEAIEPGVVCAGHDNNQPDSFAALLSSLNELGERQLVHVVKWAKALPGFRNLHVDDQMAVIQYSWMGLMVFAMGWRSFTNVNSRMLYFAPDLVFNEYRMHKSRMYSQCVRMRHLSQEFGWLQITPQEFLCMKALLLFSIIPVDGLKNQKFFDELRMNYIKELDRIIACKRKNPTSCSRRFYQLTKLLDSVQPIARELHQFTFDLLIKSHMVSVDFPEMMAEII
Nature of the assay: Evaluation of androgen receptor affinity (PolarScreen Androgen Receptor Competitor Assay Kit, Red; fluorescence polarization). The settings on record: 22° C. for 5 hours, relative to binding rate of 1 μM DHT, read-out: AR affinity (pEC50) (converted). On the procedure:
Evaluation of an Androgen Receptor Affinity
To examine the interaction of a compound with an androgen receptor, evaluation was carried out in accordance with the following procedure using PolarScreen™ Androgen Receptor Competitor Assay Kit, Red (Invitrogen). To 2 wells each of a 384 well black plate was added 5 μL of the compound solution. To each well was added 5 μL of 2×AR-LBD/Fluoromone AL Red Complex contained in the kit and the samples were reacted at 22° C. for 5 hours. After 5 hours of the reaction, fluorescence polarization was measured and the affinity was evaluated. The affinity of the compound was determined by comparing to the binding rate of 1 μM of dihydrotestosterone (DHT), and quantified the logarithm value (pEC50) of reciprocal value of the effective concentration of the compound which is equal to 50% of the binding rate by applying a 4 parameter goodness-of-fit calculation.

Molecules are shown by their SMILES. Some results are limits rather than exact numbers.

On to `Cc1sc(N(Cc2ccccc2)c2cccc(-n3cncn3)c2)nc1C(=O)NS(C)(=O)=O` [Compound 71, 2-[N-benzyl-3-(1,2,4-triazol-1-yl)anilino]-5-methyl-N-methylsulfonyl-thiazole-4-carboxamide], for which the EC50 is over 2 µM. Then `Cc1sc(N(CC(=O)N2CCCCC2)c2ccc(C#N)cc2)nc1C(=O)NS(C)(=O)=O` [Compound 72, 2-(4-cyano-N-[2-oxo-2-(1-piperidyl)ethyl]anilino)-5-methyl-N-methylsulfonyl-thiazole-4-carboxamide], with over 2 µM; and `Cc1sc(N(CC(C)C)c2ccc(C#N)cc2)nc1C(=O)NS(C)(=O)=O` [Compound 73, 2-(4-cyano-N-isobutyl-anilino)-5-methyl-N-methylsulfonyl-thiazole-4-carboxamide], with over 2 µM. Then `Cc1sc(N(CC(C)(C)C)c2ccc(C#N)cc2)nc1C(=O)NS(C)(=O)=O` [Compound 74, 2-[4-cyano-N-(2,2-dimethylpropyl)anilino]-5-methyl-N-methylsulfonyl-thiazole-4-carboxamide], with over 2 µM; and `CCC(c1ccccc1)N(c1ccc(C#N)cc1)c1nc(C(=O)NS(C)(=O)=O)c(C)s1` (centres unmarked) [Compound 84, 2-[4-cyano-N-(1-phenylpropyl)anilino]-5-methyl-N-methylsulfonyl-thiazole-4-carboxamide], with over 2 µM. Then `Cc1sc(N(Cc2cccc3nonc23)c2ccc(C#N)cc2)nc1C(=O)NS(C)(=O)=O` [Compound 92, 2-[N-(2,1,3-benzoxadiazol-4-ylmethyl)-4-cyano-anilino]-5-methyl-N-methylsulfonyl-thiazole-4-carboxamide], with 0.158 µM. For the compound `Cc1sc(N(Cc2ccccc2C(F)F)c2ccc(C#N)cc2)nc1C(=O)NS(C)(=O)=O` [Compound 93, 2-[4-cyano-N-[[2-(difluoromethyl)phenyl]methyl]anilino]-5-methyl-N-methylsulfonyl-thiazole-4-carboxamide], the EC50 is 0.631 µM. With `CC(=O)c1cccc(CN(c2ccc(C#N)cc2)c2nc(C(=O)NS(C)(=O)=O)c(C)s2)c1` [Compound 95, 2-[N-[(3-acetylphenyl)methyl]-4-cyano-anilino]-5-methyl-N-methylsulfonyl-thiazole-4-carboxamide], the EC50 was 0.251 µM. The value for `Cc1cc(F)cc(CN(c2ccc(C#N)cc2)c2nc(C(=O)NS(C)(=O)=O)c(C)s2)c1` [Compound 98, 2-[4-cyano-N-[(3-fluoro-5-methyl-phenyl)methyl]anilino]-5-methyl-N-methylsulfonyl-thiazole-4-carboxamide] was 0.0398 µM; that for `Cc1sc(N(Cc2ccccc2OC(F)(F)F)c2ccc(C#N)cc2)nc1C(=O)NS(C)(=O)=O` [Compound 101, 2-[4-cyano-N-[[2-(trifluoromethoxy)phenyl]methyl]anilino]-5-methyl-N-methylsulfonyl-thiazole-4-carboxamide] was 0.631 µM. Then `Cc1sc(N(CC2CCCOC2)c2ccc(C#N)cc2)nc1C(=O)NS(C)(=O)=O` (centres unmarked) [Compound 120, 2-[4-cyano-N-(tetrahydropyran-3-ylmethyl)anilino]-5-methyl-N-methylsulfonyl-thiazole-4-carboxamide], with over 2 µM; and `Cc1sc(N(CCc2ccccn2)c2ccc(C#N)cc2)nc1C(=O)NS(C)(=O)=O` [Compound 130, 2-[4-cyano-N-[2-(2-pyridyl)ethyl]anilino]-5-methyl-N-methylsulfonyl-thiazole-4-carboxamide], with over 2 µM; and `Cc1sc(N(CCc2cccnc2)c2ccc(C#N)cc2)nc1C(=O)NS(C)(=O)=O` [Compound 134, 2-[4-cyano-N-[2-(3-pyridyl)ethyl]anilino]-5-methyl-N-methylsulfonyl-thiazole-4-carboxamide], with over 2 µM.

Turning to `Cc1nc(CCN(c2ccc(C#N)cc2)c2nc(C(=O)NS(C)(=O)=O)c(C)s2)cs1` [Compound 135, 2-[4-cyano-N-[2-(2-methylthiazol-4-yl)ethyl]anilino]-5-methyl-N-methylsulfonyl-thiazole-4-carboxamide], the EC50 was over 2 µM. Then `Cc1ncsc1CCN(c1ccc(C#N)cc1)c1nc(C(=O)NS(C)(=O)=O)c(C)s1` [Compound 136, 2-[4-cyano-N-[2-(4-methylthiazol-5-yl)ethyl]anilino]-5-methyl-N-methylsulfonyl-thiazole-4-carboxamide], with over 2 µM; and `Cc1sc(N(CCN2CCCC2=O)c2ccc(C#N)cc2)nc1C(=O)NS(C)(=O)=O` [Compound 137, 2-[4-cyano-N-[2-(2-oxopyrrolidin-1-yl)ethyl]anilino]-5-methyl-N-methylsulfonyl-thiazole-4-carboxamide], with over 2 µM; and `Cc1sc(N(Cc2ccccc2)c2ccc(C#N)cc2Br)nc1C(=O)NS(C)(=O)=O` [Compound 142, 2-(N-benzyl-2-bromo-4-cyano-anilino)-5-methyl-N-methylsulfonyl-thiazole-4-carboxamide], with 0.631 µM. The value for `Cc1noc(C)c1CN(CCc1ccc(Cl)cc1)c1nc(C(=O)NS(C)(=O)=O)c(C)s1` [Compound 151, 2-[2-(4-chlorophenyl)ethyl-[(3,5-dimethylisoxazol-4-yl)methyl]amino]-5-methyl-N-methylsulfonyl-thiazole-4-carboxamide] was over 2 µM; that for `Cc1sc(N(CCc2c[nH]c3ccccc23)Cc2ccccc2)nc1C(=O)NS(C)(=O)=O` [Compound 320, 2-[benzyl-[2-(1H-indol-3-yl)ethyl]amino]-5-methyl-N-methylsulfonyl-thiazole-4-carboxamide] was 0.631 µM; that for `Cc1sc(N(CCc2ccc(C(=O)OC(C)(C)C)cc2)Cc2ccccc2)nc1C(=O)NS(C)(=O)=O` [Compound 327, tert-butyl 4-[2-[benzyl-[5-methyl-4-(methylsulfonylcarbamoyl)thiazol-2-yl]amino]ethyl]benzoate] was over 2 µM. Then `Cc1sc(N(CCc2ccc(C(=O)O)cc2)Cc2ccccc2)nc1C(=O)NS(C)(=O)=O` [Compound 328, 4-[2-[benzyl-[5-methyl-4-(methylsulfonylcarbamoyl)thiazol-2-yl]amino]ethyl]benzoic acid], with over 2 µM; and `Cc1sc(N(CCc2cccc(S(C)(=O)=O)c2)Cc2ccccc2)nc1C(=O)NS(C)(=O)=O` [Compound 331, 2-[benzyl-[2-(3-methylsulfonylphenyl)ethyl]amino]-5-methyl-N-methylsulfonyl-thiazole-4-carboxamide], with over 2 µM; and `Cc1sc(N(CCc2cccc(OC(F)(F)F)c2)Cc2ccccc2)nc1C(=O)NS(C)(=O)=O` [Compound 332, 2-[benzyl-[2-[3-(trifluoromethoxy)phenyl]ethyl]amino]-5-methyl-N-methylsulfonyl-thiazole-4-carboxamide], with 0.398 µM. On to `Cc1sc(N(CCc2ccccn2)Cc2ccccc2)nc1C(=O)NS(C)(=O)=O` [Compound 334, 2-[benzyl-[2-(2-pyridyl)ethyl]amino]-5-methyl-N-methylsulfonyl-thiazole-4-carboxamide], for which the EC50 is over 2 µM. The value for `Cc1sc(N(Cc2ccccc2)c2ccc3[nH]ccc3c2)nc1C(=O)NS(C)(=O)=O` [Compound 336, 2-[benzyl(1H-indol-5-yl)amino]-5-methyl-N-methylsulfonyl-thiazole-4-carboxamide] was over 2 µM; that for `Cc1sc(N(Cc2ccccc2)c2cccc3c2ccn3C)nc1C(=O)NS(C)(=O)=O` [Compound 337, 2-[benzyl-(1-methylindol-4-yl)amino]-5-methyl-N-methylsulfonyl-thiazole-4-carboxamide] was over 2 µM; that for `Cc1sc(N(Cc2ccccc2)c2ccc3c(ccn3C)c2)nc1C(=O)NS(C)(=O)=O` [Compound 338, 2-[benzyl-(1-methylindole-5-yl]amino]-5-methyl-N-methylsulfonyl-thiazole-4-carboxamide] was over 2 µM. With `Cc1sc(N(CC2CCCCO2)c2ccc(C#N)cc2)nc1C(=O)NS(C)(=O)=O` (centres unmarked) [Compound 345, 2-[4-cyano-N-(tetrahydropyran-2-ylmethyl)anilino]-5-methyl-N-methylsulfonyl-thiazole-4-carboxamide], the EC50 is over 2 µM. The value for `Cc1sc(N(CC2CCOCC2)c2ccc(C#N)cc2)nc1C(=O)NS(C)(=O)=O` [Compound 346, 2-[4-cyano-N-(tetrahydropyran-4-ylmethyl)anilino]-5-methyl-N-methylsulfonyl-thiazole-4-carboxamide] was over 2 µM; that for `Cc1sc(N(CC2CCC(=O)CC2)c2ccc(C#N)cc2)nc1C(=O)NS(C)(=O)=O` [Compound 350, 2-[4-cyano-N-[(4-oxocyclohexyl)methyl]anilino]-5-methyl-N-methylsulfonyl-thiazole-4-carboxamide] was over 2 µM. The value for `Cc1sc(N(CC2CCC(N(C)C)CC2)c2ccc(C#N)cc2)nc1C(=O)NS(C)(=O)=O` (centres unmarked) [Compound 352, 2-[4-cyano-N-[[4-(dimethylamino)cyclohexyl]methyl]anilino]-5-methyl-N-methylsulfonyl-thiazole-4-carboxamide] was over 2 µM; that for `Cc1sc(N(C[C@H]2CC[C@@H](O)CC2)c2ccc(C#N)cc2)nc1C(=O)NS(C)(=O)=O` [Compound 353, 2-[4-cyano-N-[(cis-4-hydroxycyclohexyl)methyl]anilino]-5-methyl-N-methylsulfonyl-thiazole-4-carboxamide] was over 2 µM.
